Data from patent US11572398B2, “GLP-1 derivatives and uses thereof” (Novo Nordisk A/S, priority 2014, dated 2023).
Like-named read-outs stand apart in the source and are kept apart here.

Tests used:
human GLP-1 receptor [1] = target: T1, human GLP-1 receptor (Homo sapiens, UniProt P43220); assay: GLP-1 receptor binding: competitive binding assay (125I-GLP-1, SPA) on isolated membranes at low and high HSA
T1 construct: expressed in transfected cells; host or cells: BHK cells (parent line BHKTS13), clone FCW467-12A; membrane preparation
Description: The purpose of this example is to test the receptor binding of the GLP-1 derivatives in vitro. The receptor binding is a measure of affinity of a derivative for the human GLP-1 receptor.
Each derivative is added in a series of concentrations to isolated membranes containing the human GLP-1 receptor and displacement of the labelled ligand is monitored. The receptor binding is reported as the concentration at which half of the labelled ligand is displaced from the receptor, the IC50 value.
Buffer 1 consisted of 20 mM Na-HEPES plus 10 mM EDTA and pH was adjusted to 7.4. Buffer 2 consisted of 20 mM Na-HEPES plus 0.1 mM EDTA and pH was adjusted to 7.4. Assay buffer consisted of 50 mM HEPES supplemented with 5 mM EGTA, 5 mM MgCl2, 0.005% Tween 20 and pH was adjusted to 7.4. An 8% albumin stock consisted of HSA dissolved at 8% (w/v) in assay buffer. An 0.02% albumin stock consisted of HSA dissolved at 0.02% (w/v) in assay buffer.
The cells express the human GLP-1 receptor.
The cells were grown at 5% CO2 in DMEM, 10% fetal calf serum, 1% Pen/Strep (Penicillin/Streptomycin) and 1.0 mg/ml of the selection marker G418. To make a membrane preparation the cells were grown to approximately 80% confluence. The cells were washed twice in phosphate-buffered saline and harvested. The cells were pelleted using a brief centrifugation and the cell pellet was kept on ice. […] The homogenate was centrifuged for 15 minutes. The pellet was re-suspended (homogenised) in 10 ml buffer 2 and centrifuged. This step was repeated once more. The resulting pellet was re-suspended in buffer 2 and the protein concentration was determined. The membranes were aliquoted and stored at minus 80° C.
1. […] Assay continued with step 3.
2. For the receptor binding assay in the presence of high HSA (2%) 50 μl of the 8% albumin stock was added to each well of an assay plate. Assay continued with step 3.
4. Cell membrane aliquots were thawed and diluted to their working concentration. Fifty μl were added to each well in the assay plate.
5. WGA SPA beads were suspended in assay buffer at 20 mg/ml. The suspension was diluted to 10 mg/ml in assay buffer just prior to addition to the assay plate. Fifty μl were added to each well in the assay plate.
6. […] A 25 μl aliquot was reserved for measuring total counts/well.
7. The assay plate was incubated for 2 h at 30° C.
8. The assay plate was centrifuged for 10 min.
9. The assay plate was read in a Packard TopCount NXT instrument.
The data from the TopCount instrument were transferred to GraphPad Prism software. Individual replicates were analysed using non-linear regression. IC50 values were calculated by the software and reported in nM. The reported values are averages of all of the measured values for each compound.

human GLP-1 receptor [2] = target: T1, human GLP-1 receptor; assay: In vitro potency: CRE luciferase reporter gene assay in BHK cells expressing the human GLP-1 receptor; type: cell-based
Description: The purpose of this example is to test the activity, or potency, of the GLP-1 derivatives in vitro. The in vitro potency is the measure of human GLP-1 receptor activation in a whole cell assay.
In vitro potency was determined by measuring the response of the human GLP-1 receptor in a reporter gene assay. The assay was performed in a stably transfected BHK cell line that expresses the human GLP-1 receptor and contains the DNA for the cAMP response element (CRE) coupled to a promoter and the gene for firefly luciferase (CRE luciferase). When the human GLP-1 receptor is activated it results in the production of cAMP, which in turn results in the luciferase protein being expressed. When assay incubation is completed the luciferase substrate (luciferin) is added and the enzyme converts luciferin to oxyluciferin to produce bioluminescence. The luminescence is measured as the readout for the assay.
The cells were cultured at 5% CO2 in cell culture medium. They were aliquoted and stored in liquid nitrogen. Before each assay an aliquot was taken up and washed twice in PBS before being suspended at the desired concentration in the assay specific buffer.
The assay buffer consisted of 2% ovalbumin and 0.2% Pluronic F-68 in assay medium.
1) Cell stocks were thawed in a 37° C. water bath.
2) Cells were washed three times in PBS.
3) Cells were counted and adjusted to 5×10^3 cells/50 μl (1×10^5 cells/ml) in assay medium. A 50 μl aliquot of cells was transferred to each well in the assay plate.
4) Stocks of the test compounds and reference compounds were diluted to a concentration of 0.2 μM in assay buffer. […] 8) A 100 μl aliquot of steadylite plus reagent was added to each well of the assay plate. 9) Each assay plate was covered with aluminum foil to protect it from light and shaken for 30 min at room temperature. 10) Each assay plate was read in a BioTek Synergy 2 Multi-Mode Reader. Calculations and Results
The data from the BioTek Synergy 2 Multi-Mode Reader were transferred to GraphPad Prism software. The software performs a non-linear regression (log(agonist) vs response (three parameters)).
A minimum of two replicates were measured for each sample. The reported EC50 values are averages of all of the measured values for each compound.

[3] = high HSA (2.0% final assay concentration), read-out: High HSA IC50
[4] = low HSA (max. 0.001% final assay concentration), read-out: Low HSA IC50
[5] = whole cell reporter gene assay, BHK cells, human GLP-1 receptor, average of at least two replicates, read-out: EC50

T1 sequence (P43220 24-463): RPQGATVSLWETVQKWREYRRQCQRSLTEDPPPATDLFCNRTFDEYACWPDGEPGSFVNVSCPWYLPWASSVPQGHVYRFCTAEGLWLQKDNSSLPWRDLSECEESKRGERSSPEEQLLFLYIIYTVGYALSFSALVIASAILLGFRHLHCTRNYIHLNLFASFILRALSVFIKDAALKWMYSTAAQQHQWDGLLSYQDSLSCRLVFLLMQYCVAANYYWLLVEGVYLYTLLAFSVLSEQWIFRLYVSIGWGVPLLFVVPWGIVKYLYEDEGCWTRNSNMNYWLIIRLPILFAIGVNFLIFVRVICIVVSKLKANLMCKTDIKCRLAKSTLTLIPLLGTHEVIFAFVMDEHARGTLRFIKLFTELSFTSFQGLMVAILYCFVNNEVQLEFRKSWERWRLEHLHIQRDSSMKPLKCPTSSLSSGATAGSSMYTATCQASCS

Row | Structure (SMILES) | IC50 (human GLP-1 receptor [1]; High HSA IC50, high HSA (2.0% final assay concentration)) | IC50 (human GLP-1 receptor [1]; Low HSA IC50, low HSA (max. 0.001% final assay concentration)) | EC50 (human GLP-1 receptor [2]) | IC50 (human GLP-1 receptor [1]; [3]) | IC50 (human GLP-1 receptor [1]; [4]) | EC50 (human GLP-1 receptor [2]; [5])
1 | CC[C@H](C)[C@H](NC(=O)[C@H](Cc1ccccc1)NC(=O)[C@H](CCC(=O)O)NC(=O)[C@H](CCCNC(=N)N)NC(=O)[C@H](C)NC(=O)[C@H](C)NC(=O)[C@H](CCC(N)=O)NC(=O)[C@H](CCC(=O)O)NC(=O)[C@H](CCC(=O)O)NC(=O)[C@H](CC(C)C)NC(=O)[C@H](Cc1ccc(O)cc1)NC(=O)[C@H](CO)NC(=O)[C@H](CO)NC(=O)[C@@H](NC(=O)[C@H](CC(=O)O)NC(=O)[C@H](CO)NC(=O)[C@@H](NC(=O)[C@H](Cc1ccccc1)NC(=O)[C@@H](NC(=O)CNC(=O)[C@H](CCC(=O)O)NC(=O)C(C)(C)NC(=O)[C@@H](N)Cc1c[nH]cn1)[C@@H](C)O)[C@@H](C)O)C(C)C)C(=O)N[C@@H](C)C(=O)N[C@@H](Cc1c[nH]c2ccccc12)C(=O)N[C@@H](CC(C)C)C(=O)N[C@H](C(=O)N[C@@H](CCCNC(=N)N)C(=O)NCC(=O)N[C@@H](CCCNC(=N)N)C(=O)N[C@@H](CCCCNC(=O)CN(CCCNC(=O)COCCOCCNC(=O)COCCOCCNC(=O)COCCOCCNC(=O)COCCOCCNC(=O)COCCOCCNC(=O)COCCOCCNC(=O)[C@@H](N)CCCCNC(=O)[C@@H](N)CCCCNC(=O)CCCNC(=O)CCCCCCCCCCCCCCCS(=O)(=O)O)CCCNC(=O)COCCOCCNC(=O)COCCOCCNC(=O)COCCOCCNC(=O)COCCOCCNC(=O)COCCOCCNC(=O)COCCOCCNC(=O)[C@@H](N)CCCCNC(=O)[C@@H](N)CCCCNC(=O)CCCNC(=O)CCCCCCCCCCCCCCCS(=O)(=O)O)C(=O)O)C(C)C [Example 15] | 3400 pM | 50 pM | 5.6 pM | – | – | –
2 | CC[C@H](C)[C@H](NC(=O)[C@H](Cc1ccccc1)NC(=O)[C@H](CCC(=O)O)NC(=O)[C@H](CCCNC(=N)N)NC(=O)[C@H](C)NC(=O)[C@H](C)NC(=O)[C@H](CCC(N)=O)NC(=O)[C@H](CCC(=O)O)NC(=O)[C@H](CCC(=O)O)NC(=O)[C@H](CC(C)C)NC(=O)[C@H](Cc1ccc(O)cc1)NC(=O)[C@H](CO)NC(=O)[C@H](CO)NC(=O)[C@@H](NC(=O)[C@H](CC(=O)O)NC(=O)[C@H](CO)NC(=O)[C@@H](NC(=O)[C@H](Cc1ccccc1)NC(=O)[C@@H](NC(=O)CNC(=O)[C@H](CCC(=O)O)NC(=O)C(C)(C)NC(=O)[C@@H](N)Cc1c[nH]cn1)[C@@H](C)O)[C@@H](C)O)C(C)C)C(=O)N[C@@H](C)C(=O)N[C@@H](Cc1c[nH]c2ccccc12)C(=O)N[C@@H](CC(C)C)C(=O)N[C@H](C(=O)N[C@@H](CCCNC(=N)N)C(=O)NCC(=O)N[C@@H](CCCNC(=N)N)C(=O)N[C@@H](CCCCNC(=O)CN(CCCNC(=O)COCCOCCNC(=O)COCCOCCNC(=O)COCCOCCNC(=O)COCCOCCNC(=O)CC[C@H](NC(=O)CCCNC(=O)CCCCCCCCCCCCCCCS(=O)(=O)O)C(=O)O)CCCNC(=O)COCCOCCNC(=O)COCCOCCNC(=O)COCCOCCNC(=O)COCCOCCNC(=O)CC[C@H](NC(=O)CCCNC(=O)CCCCCCCCCCCCCCCS(=O)(=O)O)C(=O)O)C(=O)O)C(C)C [Example 16, N{Epsilon-37}-[2-[bis[3-[[2-[2-[2-[[2-[2-[2-[[2-[2-[2-[[2-[2-[2-[[(4S)-4-carboxy-4-[4-(16-sulfohexadecanoylamino)butanoylamino]butanoyl]amino]ethoxy]ethoxy]acetyl]amino]ethoxy]ethoxy]acetyl]amino]ethoxy]ethoxy]acetyl]amino]ethoxy]ethoxy]acetyl]amino]propyl]amino]acetyl]-[Aib8,Glu22,Arg26,Arg34,Lys37]-GLP-1-(7-37)-peptide] | – | – | – | 3300 pM | 100 pM | 1.7 pM
3 | CC[C@H](C)[C@H](NC(=O)[C@H](Cc1ccccc1)NC(=O)[C@H](CCC(=O)O)NC(=O)[C@H](CCCNC(=N)N)NC(=O)[C@H](C)NC(=O)[C@H](C)NC(=O)[C@H](CCC(N)=O)NC(=O)[C@H](CCC(=O)O)NC(=O)[C@H](CCC(=O)O)NC(=O)[C@H](CC(C)C)NC(=O)[C@H](Cc1ccc(O)cc1)NC(=O)[C@H](CO)NC(=O)[C@H](CO)NC(=O)[C@@H](NC(=O)[C@H](CC(=O)O)NC(=O)[C@H](CO)NC(=O)[C@@H](NC(=O)[C@H](Cc1ccccc1)NC(=O)[C@@H](NC(=O)CNC(=O)[C@H](CCC(=O)O)NC(=O)C(C)(C)NC(=O)[C@@H](N)Cc1c[nH]cn1)[C@@H](C)O)[C@@H](C)O)C(C)C)C(=O)N[C@@H](C)C(=O)N[C@@H](Cc1c[nH]c2ccccc12)C(=O)N[C@@H](CC(C)C)C(=O)N[C@H](C(=O)N[C@@H](CCCNC(=N)N)C(=O)NCC(=O)N[C@@H](CCCNC(=N)N)C(=O)N[C@@H](CCCCNC(=O)CN(CCCNC(=O)COCCOCCNC(=O)COCCOCCNC(=O)COCCOCCNC(=O)COCCOCCNC(=O)COCCOCCNC(=O)CC[C@H](NC(=O)CCCNC(=O)CCCCCCCCCCCCCCCS(=O)(=O)O)C(=O)O)CCCNC(=O)COCCOCCNC(=O)COCCOCCNC(=O)COCCOCCNC(=O)COCCOCCNC(=O)COCCOCCNC(=O)CC[C@H](NC(=O)CCCNC(=O)CCCCCCCCCCCCCCCS(=O)(=O)O)C(=O)O)C(=O)O)C(C)C [Example 17, N{Epsilon-37}-[2-[bis[3-[[2-[2-[2-[[2-[2-[2-[[2-[2-[2-[[2-[2-[2-[[2-[2-[2-[[(4S)-4-carboxy-4-[4-(16-sulfohexadecanoylamino)butanoylamino]butanoyl]amino]ethoxy]ethoxy]acetyl]amino]ethoxy]ethoxy]acetyl]amino]ethoxy]ethoxy]acetyl]amino]ethoxy]ethoxy]acetyl]amino]ethoxy]ethoxy]acetyl]amino]propyl]amino]acetyl]-[Aib8,Glu22,Arg26,Arg34,Lys37]-GLP-1-(7-37)-peptide] | – | – | – | 3200 pM | 160 pM | 1.2 pM
